Results: ChEMBL document CHEMBL1201862, “PubChem BioAssay data set” (2004)
The source made the active and inactive calls.

What was measured:
[1] = target: Peroxisome proliferator-activated receptor gamma/Nuclear receptor corepressor 2 (Homo sapiens, UniProt P37231+Q9Y618); assay: Counterscreen for NR2E3 inverse agonists: TR-FRET-based biochemical high throughput dose response assay to identify inverse agonists of the interaction between peroxisome proliferator-activated receptor gamma (PPARg) and nuclear receptor co-repressor 2 (NCOR2).; assay type: functional
Sequence of Peroxisome proliferator-activated receptor gamma/Nuclear receptor corepressor 2 (P37231 whole entry): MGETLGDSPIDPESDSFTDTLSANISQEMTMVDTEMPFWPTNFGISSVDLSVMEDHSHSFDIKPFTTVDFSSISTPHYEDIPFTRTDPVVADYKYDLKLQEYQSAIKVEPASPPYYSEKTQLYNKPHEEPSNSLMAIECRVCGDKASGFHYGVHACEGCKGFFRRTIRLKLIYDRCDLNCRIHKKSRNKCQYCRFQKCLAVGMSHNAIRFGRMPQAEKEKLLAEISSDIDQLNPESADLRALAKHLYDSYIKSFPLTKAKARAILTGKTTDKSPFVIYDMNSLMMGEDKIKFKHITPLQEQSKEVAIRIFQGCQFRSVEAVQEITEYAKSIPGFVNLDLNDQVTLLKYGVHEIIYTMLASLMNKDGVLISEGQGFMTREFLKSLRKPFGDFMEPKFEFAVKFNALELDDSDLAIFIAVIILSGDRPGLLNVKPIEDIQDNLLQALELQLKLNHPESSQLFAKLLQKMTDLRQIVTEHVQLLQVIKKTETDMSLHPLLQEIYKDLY
Sequence of Peroxisome proliferator-activated receptor gamma/Nuclear receptor corepressor 2 (Q9Y618 whole entry): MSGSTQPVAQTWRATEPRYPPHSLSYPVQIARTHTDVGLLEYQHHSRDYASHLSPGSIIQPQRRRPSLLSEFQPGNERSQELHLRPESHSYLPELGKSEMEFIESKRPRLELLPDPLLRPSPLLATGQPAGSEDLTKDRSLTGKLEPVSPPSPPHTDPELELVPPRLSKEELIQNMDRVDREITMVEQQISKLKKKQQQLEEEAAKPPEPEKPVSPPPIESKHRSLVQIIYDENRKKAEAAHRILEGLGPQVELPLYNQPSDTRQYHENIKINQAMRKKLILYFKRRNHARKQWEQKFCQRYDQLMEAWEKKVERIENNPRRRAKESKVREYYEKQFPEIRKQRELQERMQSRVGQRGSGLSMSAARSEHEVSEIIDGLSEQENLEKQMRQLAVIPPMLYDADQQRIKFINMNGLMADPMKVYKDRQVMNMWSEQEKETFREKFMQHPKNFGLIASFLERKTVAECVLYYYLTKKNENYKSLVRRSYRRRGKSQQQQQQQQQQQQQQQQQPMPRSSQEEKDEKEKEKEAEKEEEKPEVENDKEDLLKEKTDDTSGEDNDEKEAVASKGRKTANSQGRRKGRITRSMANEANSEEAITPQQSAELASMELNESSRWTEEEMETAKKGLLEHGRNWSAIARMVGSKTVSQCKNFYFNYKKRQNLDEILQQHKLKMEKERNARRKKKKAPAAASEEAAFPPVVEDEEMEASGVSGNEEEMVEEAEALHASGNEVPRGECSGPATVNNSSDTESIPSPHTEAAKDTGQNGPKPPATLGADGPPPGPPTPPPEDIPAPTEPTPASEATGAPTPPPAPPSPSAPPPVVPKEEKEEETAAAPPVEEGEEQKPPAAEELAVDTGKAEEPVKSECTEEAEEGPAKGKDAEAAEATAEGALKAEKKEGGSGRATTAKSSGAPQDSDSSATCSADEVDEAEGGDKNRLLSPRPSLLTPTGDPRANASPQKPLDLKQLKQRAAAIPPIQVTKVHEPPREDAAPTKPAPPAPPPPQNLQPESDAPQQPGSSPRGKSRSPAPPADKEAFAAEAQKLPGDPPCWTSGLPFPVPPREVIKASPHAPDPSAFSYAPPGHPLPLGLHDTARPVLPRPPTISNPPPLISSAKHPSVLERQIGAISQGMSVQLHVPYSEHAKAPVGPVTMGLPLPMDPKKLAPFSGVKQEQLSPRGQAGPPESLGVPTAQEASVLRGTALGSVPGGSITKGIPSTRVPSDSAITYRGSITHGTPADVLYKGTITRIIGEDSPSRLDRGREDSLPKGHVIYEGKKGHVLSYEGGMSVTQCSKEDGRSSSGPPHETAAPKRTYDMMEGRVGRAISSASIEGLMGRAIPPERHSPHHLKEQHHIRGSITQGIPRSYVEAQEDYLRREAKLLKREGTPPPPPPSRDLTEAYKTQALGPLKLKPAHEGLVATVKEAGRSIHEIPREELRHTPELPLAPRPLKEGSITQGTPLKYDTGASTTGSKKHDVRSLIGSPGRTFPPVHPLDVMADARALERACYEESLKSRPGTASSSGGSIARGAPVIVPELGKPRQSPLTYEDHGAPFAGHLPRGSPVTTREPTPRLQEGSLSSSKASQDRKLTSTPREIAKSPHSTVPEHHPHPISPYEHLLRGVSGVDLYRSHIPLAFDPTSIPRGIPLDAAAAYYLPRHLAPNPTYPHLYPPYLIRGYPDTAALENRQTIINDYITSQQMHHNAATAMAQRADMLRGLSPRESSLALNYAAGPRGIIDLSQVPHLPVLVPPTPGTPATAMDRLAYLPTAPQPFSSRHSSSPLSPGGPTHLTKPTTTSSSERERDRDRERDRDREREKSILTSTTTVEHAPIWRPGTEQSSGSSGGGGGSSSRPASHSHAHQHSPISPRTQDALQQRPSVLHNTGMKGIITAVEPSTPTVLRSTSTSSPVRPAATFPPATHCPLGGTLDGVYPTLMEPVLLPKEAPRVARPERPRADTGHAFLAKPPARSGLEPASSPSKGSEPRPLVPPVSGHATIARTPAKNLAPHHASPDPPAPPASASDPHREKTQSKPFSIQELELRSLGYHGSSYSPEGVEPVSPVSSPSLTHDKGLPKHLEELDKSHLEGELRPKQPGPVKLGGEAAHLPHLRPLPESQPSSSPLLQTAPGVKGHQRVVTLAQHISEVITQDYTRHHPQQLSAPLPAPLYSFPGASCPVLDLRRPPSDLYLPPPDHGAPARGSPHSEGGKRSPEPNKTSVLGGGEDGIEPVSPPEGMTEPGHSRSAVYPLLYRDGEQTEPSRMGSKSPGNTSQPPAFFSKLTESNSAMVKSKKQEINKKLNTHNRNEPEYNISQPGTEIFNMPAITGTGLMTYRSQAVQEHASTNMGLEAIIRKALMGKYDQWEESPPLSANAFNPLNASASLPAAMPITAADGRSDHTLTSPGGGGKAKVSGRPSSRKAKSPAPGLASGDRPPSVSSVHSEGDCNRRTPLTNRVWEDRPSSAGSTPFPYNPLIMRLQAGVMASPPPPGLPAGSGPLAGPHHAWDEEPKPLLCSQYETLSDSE

[2] = target: Photoreceptor-specific nuclear receptor (Homo sapiens, UniProt Q9Y5X4); assay: NR2E3 inverse agonists, dose response, biochemical, TR-FRET (AID 463256); assay type: functional
[3] = target: T1, Kappa-type opioid receptor (Homo sapiens, UniProt P41145); assay type: functional
T1 sequence (P41145 whole entry): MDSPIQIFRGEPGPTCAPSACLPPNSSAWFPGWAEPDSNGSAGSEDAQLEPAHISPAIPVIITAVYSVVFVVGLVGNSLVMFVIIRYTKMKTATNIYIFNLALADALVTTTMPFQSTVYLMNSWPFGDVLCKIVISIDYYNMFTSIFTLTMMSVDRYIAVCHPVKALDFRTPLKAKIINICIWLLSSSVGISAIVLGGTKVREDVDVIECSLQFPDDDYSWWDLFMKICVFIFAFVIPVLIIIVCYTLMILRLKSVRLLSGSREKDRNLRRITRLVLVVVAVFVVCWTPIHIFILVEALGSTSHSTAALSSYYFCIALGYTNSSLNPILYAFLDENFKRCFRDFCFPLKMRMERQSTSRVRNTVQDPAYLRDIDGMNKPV

[4] = A Cell Based Secondary Assay To Explore Cytotoxicity of Compounds that Sensitize Mycobacterium Tuberculosis to Beta-Lactam Antibiotics.; assay type: functional
Vero [5] = assay: host cell cytotoxicity of antiviral hits, dose response, cytotoxicity control for West Nile virus antiviral project, secondary assay (AID 1650); assay type: functional; details: Chlorocebus sabaeus
Vero [6] = assay: cells; assay type: functional; details: Chlorocebus sabaeus
Vero [7] = assay: cells; assay type: functional, cell-based; details: Chlorocebus sabaeus
[8] = target: T2, Type-1 angiotensin II receptor (Homo sapiens, UniProt P30556); assay: AT1 receptor antagonists, dose response, selectivity assay for APJ receptor antagonist project, cell-based, uHTS hits (AID 463214); assay type: functional;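 also: antagonist potency against angiotensin II stimulated AT1 response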
T2 sequence (P30556 whole entry): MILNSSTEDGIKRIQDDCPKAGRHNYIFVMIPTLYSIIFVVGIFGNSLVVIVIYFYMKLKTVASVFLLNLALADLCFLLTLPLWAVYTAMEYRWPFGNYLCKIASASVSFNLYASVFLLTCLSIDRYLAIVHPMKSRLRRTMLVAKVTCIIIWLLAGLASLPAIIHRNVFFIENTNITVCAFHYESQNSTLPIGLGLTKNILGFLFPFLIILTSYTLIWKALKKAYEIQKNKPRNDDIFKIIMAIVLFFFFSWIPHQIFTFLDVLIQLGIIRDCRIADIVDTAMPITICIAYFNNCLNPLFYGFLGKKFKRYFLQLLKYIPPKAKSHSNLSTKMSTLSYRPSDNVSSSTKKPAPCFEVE

[9] = target: T3, Delta-type opioid receptor (Homo sapiens, UniProt P41143); assay: HTS Image-Based Screen for Antagonists of the DOR Receptor. [Related pubchem assays (depositor defined):AID1777, AID1785, AID1786, AID2133]; assay type: functional
T3 sequence (P41143 whole entry): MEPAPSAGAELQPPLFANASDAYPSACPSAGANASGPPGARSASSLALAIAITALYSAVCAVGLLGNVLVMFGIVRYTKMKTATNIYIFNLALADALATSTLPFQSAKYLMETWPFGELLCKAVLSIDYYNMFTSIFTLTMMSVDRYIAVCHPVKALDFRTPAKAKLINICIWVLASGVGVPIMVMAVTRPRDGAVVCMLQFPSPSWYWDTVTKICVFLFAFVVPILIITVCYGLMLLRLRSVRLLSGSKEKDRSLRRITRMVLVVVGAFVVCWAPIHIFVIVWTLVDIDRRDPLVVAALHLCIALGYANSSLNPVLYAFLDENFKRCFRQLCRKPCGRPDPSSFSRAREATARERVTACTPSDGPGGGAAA

Beta-galactosidase [10] = target: T4, Beta-galactosidase (Escherichia coli, UniProt Q8VNN2); assay: PubChem AID 485352; assay type: functional
T4 sequence (Q8VNN2 whole entry): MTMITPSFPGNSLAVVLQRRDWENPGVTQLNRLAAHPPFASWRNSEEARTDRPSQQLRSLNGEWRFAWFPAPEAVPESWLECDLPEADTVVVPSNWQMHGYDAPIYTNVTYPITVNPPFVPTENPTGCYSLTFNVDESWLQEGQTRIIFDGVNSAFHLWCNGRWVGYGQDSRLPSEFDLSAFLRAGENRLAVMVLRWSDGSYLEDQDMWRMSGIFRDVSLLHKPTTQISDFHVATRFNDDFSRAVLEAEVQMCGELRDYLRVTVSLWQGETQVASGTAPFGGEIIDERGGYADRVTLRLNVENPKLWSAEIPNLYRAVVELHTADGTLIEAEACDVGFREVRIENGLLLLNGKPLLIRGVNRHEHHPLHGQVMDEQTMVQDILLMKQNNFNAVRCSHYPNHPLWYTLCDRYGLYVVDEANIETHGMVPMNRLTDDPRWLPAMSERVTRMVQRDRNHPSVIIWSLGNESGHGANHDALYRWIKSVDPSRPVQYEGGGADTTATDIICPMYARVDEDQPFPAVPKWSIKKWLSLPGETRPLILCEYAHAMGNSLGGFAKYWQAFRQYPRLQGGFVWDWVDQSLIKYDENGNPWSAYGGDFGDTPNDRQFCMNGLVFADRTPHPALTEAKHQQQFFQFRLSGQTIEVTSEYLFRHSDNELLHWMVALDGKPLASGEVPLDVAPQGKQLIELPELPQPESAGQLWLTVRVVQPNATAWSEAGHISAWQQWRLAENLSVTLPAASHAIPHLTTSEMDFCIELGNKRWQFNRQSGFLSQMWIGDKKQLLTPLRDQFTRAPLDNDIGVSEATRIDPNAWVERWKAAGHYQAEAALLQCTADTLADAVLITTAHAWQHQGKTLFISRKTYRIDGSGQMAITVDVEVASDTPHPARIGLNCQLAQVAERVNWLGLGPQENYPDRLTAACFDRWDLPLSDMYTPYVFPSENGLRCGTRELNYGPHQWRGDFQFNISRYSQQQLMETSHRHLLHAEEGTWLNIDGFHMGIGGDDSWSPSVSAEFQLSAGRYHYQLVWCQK

[11] = Luminescence Cell-Based Dose Confirmation HTS to Identify Inhibitors of Polyadenylation.; assay type: functional
Mu-type opioid receptor = Mu-type opioid receptor (Homo sapiens, UniProt P35372); assay: HTS Image-Based Screen for Agonists of the MOR Receptor. [Related pubchem assays (depositor defined):AID1777, AID1785, AID1786, AID2133]; assay type: functional;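 also: imaging of beta-arrestin GFP recruitment into spots after receptor activation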
Beta-galactosidase [12] = target: T4, Beta-galactosidase; assay type: functional
[13] = target: T1, Kappa-type opioid receptor; assay type: functional; remark: listed apart in the source
Streptokinase A = target: T5, Streptokinase A (Streptococcus pyogenes serotype M1, UniProt P10520); assay: S. pyogenes streptokinase expression inhibitors, potency, dose response, plasminogen activation absorbance, OD405 (AID 1914); assay type: functional, Streptococcus pyogenes M1 GAS;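 also: secreted streptokinase activity via plasminogen activation per viability signal from cell pellet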
T5 sequence (P10520 whole entry): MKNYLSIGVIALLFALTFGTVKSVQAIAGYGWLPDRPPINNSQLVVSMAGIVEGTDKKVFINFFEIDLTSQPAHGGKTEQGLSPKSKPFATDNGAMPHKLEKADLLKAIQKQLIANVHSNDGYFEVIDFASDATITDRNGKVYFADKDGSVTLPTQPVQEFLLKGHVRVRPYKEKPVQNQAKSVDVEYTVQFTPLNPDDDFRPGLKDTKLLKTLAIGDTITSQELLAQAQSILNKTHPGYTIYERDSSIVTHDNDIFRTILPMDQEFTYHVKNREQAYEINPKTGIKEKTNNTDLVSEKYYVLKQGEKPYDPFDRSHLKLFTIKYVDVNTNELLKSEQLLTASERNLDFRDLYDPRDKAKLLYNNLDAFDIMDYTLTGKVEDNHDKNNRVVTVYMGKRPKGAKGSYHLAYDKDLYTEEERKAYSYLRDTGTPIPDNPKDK

[14] = target: T3, Delta-type opioid receptor; assay: HTS Image-Based Screen for Agonists of the DOR Receptor. [Related pubchem assays (depositor defined):AID1777, AID1786, AID2133]; assay type: functional
[15] = test system: Streptococcus sp. 'group A'; assay: growth inhibition of control SK(-) GAS strain, dose response, counter-screen for streptokinase expression inhibitor project, luminescence, kanamycin, BacTiterGlo, confirmation (AID 1900); assay type: functional, organism-based
Streptococcus = assay: Group A Streptococcus viability loss, dose response, counter-screen for streptokinase expression inhibitor project, luminescence, BacTiterGlo (AID 1915); assay type: functional, organism-based;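 also: potency for reduction of bacterial viability or growth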
[16] = target: Sphingosine 1-phosphate receptor 3 (Homo sapiens, UniProt Q99500); assay: Dose Response Cell-Based Assay for Agonists of the Sphingosine 1-Phosphate Receptor 3 (S1P3): Purchased Analogues. [Related pubchem assays: 373, 439 ]; assay type: functional
[17] = target: Sphingosine 1-phosphate receptor 1 (Homo sapiens, UniProt P21453); assay: Dose Response Cell-Based Assay for Agonists of the Sphingosine 1-Phosphate Receptor 1 (S1P1): Purchased Analogues. [Related pubchem assays: 1192, 373, 439 ]; assay type: functional
[18] = target: Sphingosine 1-phosphate receptor 2 (Homo sapiens, UniProt O95136); assay: Dose Response Cell-Based Assay for Agonists of the Sphingosine 1-Phosphate Receptor 2 (S1P2): Purchased Analogues. [Related pubchem assays: 1192, 373, 439 ]; assay type: functional
Vero [19] = assay: West Nile virus antiviral activity, cell-based, CPE readout (AID 1621); assay type: functional; details: Chlorocebus sabaeus
[20] = target: T6, Histone-lysine N-methyltransferase NSD2 (Homo sapiens, UniProt O96028); assay type: biochemical
T6 sequence (O96028 whole entry): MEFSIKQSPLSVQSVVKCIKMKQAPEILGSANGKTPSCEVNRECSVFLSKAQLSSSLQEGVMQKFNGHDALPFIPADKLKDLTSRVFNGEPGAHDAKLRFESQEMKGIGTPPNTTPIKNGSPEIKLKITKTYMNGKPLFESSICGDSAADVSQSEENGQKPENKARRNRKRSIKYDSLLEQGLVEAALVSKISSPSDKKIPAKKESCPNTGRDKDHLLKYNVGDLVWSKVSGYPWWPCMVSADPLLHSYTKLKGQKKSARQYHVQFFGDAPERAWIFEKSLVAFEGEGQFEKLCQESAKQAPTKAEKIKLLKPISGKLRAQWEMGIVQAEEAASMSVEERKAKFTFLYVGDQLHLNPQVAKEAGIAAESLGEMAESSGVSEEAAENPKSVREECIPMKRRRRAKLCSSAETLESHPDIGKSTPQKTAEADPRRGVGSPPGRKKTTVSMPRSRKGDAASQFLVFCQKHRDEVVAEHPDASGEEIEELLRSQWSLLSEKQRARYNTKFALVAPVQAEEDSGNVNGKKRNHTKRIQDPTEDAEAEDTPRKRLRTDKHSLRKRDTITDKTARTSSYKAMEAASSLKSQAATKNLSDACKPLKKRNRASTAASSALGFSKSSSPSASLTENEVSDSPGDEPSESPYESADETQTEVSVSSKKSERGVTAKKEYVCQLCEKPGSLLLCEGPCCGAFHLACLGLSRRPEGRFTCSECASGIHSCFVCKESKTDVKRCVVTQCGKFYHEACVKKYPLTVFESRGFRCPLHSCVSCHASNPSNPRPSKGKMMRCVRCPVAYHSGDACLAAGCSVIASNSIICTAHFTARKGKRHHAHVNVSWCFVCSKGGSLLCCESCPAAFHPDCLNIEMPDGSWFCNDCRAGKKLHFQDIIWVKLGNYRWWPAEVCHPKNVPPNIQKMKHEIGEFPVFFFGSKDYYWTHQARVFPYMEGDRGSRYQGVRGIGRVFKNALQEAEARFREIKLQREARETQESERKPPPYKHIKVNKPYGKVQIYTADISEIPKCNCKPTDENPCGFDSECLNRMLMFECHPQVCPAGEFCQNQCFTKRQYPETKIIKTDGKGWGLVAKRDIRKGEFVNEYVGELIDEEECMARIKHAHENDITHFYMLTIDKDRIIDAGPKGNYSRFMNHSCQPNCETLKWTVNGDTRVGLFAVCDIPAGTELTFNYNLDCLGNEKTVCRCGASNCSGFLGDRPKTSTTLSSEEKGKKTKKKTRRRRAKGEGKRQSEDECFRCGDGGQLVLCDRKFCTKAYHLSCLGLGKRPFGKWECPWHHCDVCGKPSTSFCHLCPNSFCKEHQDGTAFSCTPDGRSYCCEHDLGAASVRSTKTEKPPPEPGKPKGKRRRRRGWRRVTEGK

With `COc1ccc(C(=O)NCc2ccc(-c3nc4ccccc4s3)cc2)cc1OC` the IC50 [1] was 6.27 µM (active) and the IC50 [2] was 5.83 µM (active).

For `Cc1ccc(S(=O)(=O)Nc2cccc3cccnc23)c([N+](=O)[O-])c1`, the IC50 [3] was 5.55 µM (active), the CC50 [4] was 5.64 µM (active) and the CC50 (Vero [5]) was 5.79 µM (active). The CC50 (Vero [6]) was 7.85 µM (active), the IC50 (Vero [7]) was 18.4 µM (active) and the IC50 [8] was 8.21 µM (active). The IC50 [9] was > 32 µM (inactive), the EC50 (Beta-galactosidase [10]) was > 40 µM (inactive) and the EC50 [11] was > 120 µM (not active). The EC50 (Mu-type opioid receptor) was > 32 µM (inactive), the EC50 (Beta-galactosidase [12]) was > 31.5 µM (inactive) and the IC50 [13] was > 32 µM. For the same compound, the EC50 (Streptokinase A) was > 150 µM (not active), the EC50 [14] was > 32 µM (inactive) and the EC50 [15] was 0.707 µM (active). The EC50 (Streptococcus) was 17.4 µM (active).

With `Cc1ccc(-c2cc(C(=O)NC3CCCCC3)no2)cc1` the EC50 [16] was > 50 µM (not active), the EC50 [17] was 0.194 µM (active) and the EC50 [18] was > 10 µM (not active).

With `COc1ccc(-c2csc(N(CCCN(C)C)C(=O)c3ccccc3Cl)n2)cc1` the IC50 (Vero [19]) was 25 µM (active) and the AC50 [20] was > 20 µM (inactive).
